The test system of series [1] is Human immunodeficiency virus 1. Kind of series: Antiviral activity against wild type HIV1 3B infected in human MT4 cells assessed as inhibition of virus-induced cytopathic effect after 5 days by MTT assay. The format is functional, cell-based. The conditions noted are these: Human immunodeficiency virus 1, 3B, MT4, 120 h.
In series [2] the test system is Human immunodeficiency virus 1. Description: Antiviral activity against HIV1 RES056 harboring reverse transcriptase K103N/Y181C double mutant infected in human MT4 cells assessed as inhibition of virus-induced cytopathic effect after 5 days by MTT assay. The format is functional, cell-based. (In general: Cytopathic effects are the visible damage that an infection or toxin causes in cultured cells.)

In series [3] the test system is Human immunodeficiency virus 2. Description: Antiviral activity against HIV2 ROD harboring reverse transcriptase K103N/Y181C double mutant infected in human MT4 cells assessed as inhibition of virus-induced cytopathic effect after 5 days by MTT assay. The format is functional, cell-based. As to conditions: ISOLATE ROD.
Series [4] in a line: Cytotoxicity against human MT4 cells assessed as reduction in cell viability after 5 days by MTT assay. The format is cell-based. (Tetrazolium dyes change colour on reduction, which living cells bring about.)
Series [5] in a line: Selectivity index, ratio of CC50 for human MT4 cells to EC50 for wild type HIV1 3B infected in human MT4 cells. The format is toxicity, cell-based. As to conditions: read-out: Ratio CC50/EC50.
The subject of series [6] is Human immunodeficiency virus 1. Kind of series: Inhibition of recombinant wild type HIV1 reverse transcriptase assessed as reduction in biotin-dUTP incorporation at 50 uM using poly(A)/oligo(dT)15 as template/primer by ELISA relative to control. A general note: In an ELISA, binding on a coated surface is turned into a signal by an enzyme label.

Calls of active or inactive are those of the source. The calls are words filed in the database; no cut-off is given here.

One may read the EC50 as the concentration giving half of the maximal effect. The term inhibition denotes how much of the control response was suppressed. A word on the CC50: it is the concentration giving 50% cytotoxicity.

For `N#Cc1ccc(Nc2cc(NS(=O)(=O)c3cc(F)cc(F)c3)ccn2)cc1`, the concentration giving a half-maximal response (EC50) in series [1] is above 28.6 µM. Also, the inhibition entry in series [2] and in series [3] was “inactive” throughout. Besides, the CC50 at 120 h in series [4] came out at 28.6 µM. In addition, the selectivity ratio in series [5] is below 1.

For `N#Cc1ccc(Nc2nccc(NS(=O)(=O)c3cc(C(F)(F)F)cc(C(F)(F)F)c3)n2)cc1`, the concentration for a half-maximal effect (EC50) in series [1] is above 115 µM. Besides, the inhibition result in series [2] and in series [3] was “inactive” in each case. Besides, the CC50 at 120 h in series [4] was found to be 115 µM. Further, the selectivity ratio in series [5] was below 1.

For `Nc1ccn([C@@H]2CS[C@H](CO)O2)c(=O)n1` [LAMIVUDINE], the EC50 in series [1] was determined as 2.54 µM. For the same compound, the CC50 at 120 h in series [4] was above 87.2 µM. Moreover, the selectivity ratio in series [5] is above 34.

For `N#Cc1ccc(Nc2cc(NS(=O)(=O)c3ccc(C#N)cc3)ccn2)cc1`, in series [1], the EC50 was above 93.4 µM. Also, the inhibition entry in series [2] and in series [3] was “inactive” throughout. Also, the CC50 at 120 h in series [4] was found to be 93.4 µM. Further, the selectivity ratio in series [5] is below 1.

In the case of `N#Cc1ccc(Nc2nccc(NS(=O)(=O)c3cc(F)cc(F)c3)n2)cc1`, the EC50 in series [1] is 47 µM. Further, the inhibition entry in series [2] and in series [3] was “inactive” each time. In addition, in series [4], the CC50 at 120 h was found to be 93.9 µM. The selectivity ratio in series [5] was 2.

On to `N#Cc1ccc(Nc2cc(NS(=O)(=O)c3ccc(C(F)(F)F)cc3)ccn2)cc1`, for which the 50% effective concentration (EC50) in series [1] was above 28 µM. Further, the inhibition result in series [2] and in series [3] was “inactive” each time. In series [4], the half-maximal cytotoxic concentration (CC50) at 120 h was determined as 28 µM. In addition, in series [5], the selectivity ratio is below 1.

Turning to `N#Cc1ccc(Nc2nccc(NS(=O)(=O)c3ccc(C(F)(F)F)cc3)n2)cc1`, the concentration giving a half-maximal response (EC50) in series [1] is above 54.7 µM. Moreover, the inhibition result in series [2] and in series [3] was “inactive” throughout. Further, in series [4], the CC50 at 120 h is 54.7 µM. The selectivity ratio in series [5] is below 1.

Regarding `Cc1ccnc2c1NC(=O)c1cccnc1N2C1CC1`, the inhibition in series [6] came to 88%.

As for `CC(C)(C)c1ccc(S(=O)(=O)Nc2ccnc(Nc3ccc(C#N)cc3)c2)cc1`, the 50% effective concentration (EC50) in series [1] was determined as 4.92 µM. Besides, the inhibition result in series [2] and in series [3] was “inactive” throughout. Besides, the CC50 at 120 h in series [4] was 29.3 µM. Moreover, the selectivity ratio in series [5] came out at 6.

As for `N#Cc1ccc(Nc2cc(NS(=O)(=O)c3ccc4ccccc4c3)ccn2)cc1`, the 50% effective concentration (EC50) in series [1] is above 30 µM. Also, the inhibition entry in series [2] and in series [3] was “inactive” each time. In addition, in series [4], the half-maximal cytotoxic concentration (CC50) at 120 h worked out at 30 µM. Moreover, in series [5], the selectivity ratio is below 1.

`Cc1ccc(S(=O)(=O)Nc2ccnc(Nc3ccc(C#N)cc3)c2)cc1`: the concentration for a half-maximal effect (EC50) in series [1] was 1.48 µM. The inhibition result in series [2] and in series [3] was “inactive” in each case. Besides, the CC50 at 120 h in series [4] came out at 14 µM. Moreover, the inhibition in series [6] is 5.7%. In addition, in series [5], the selectivity ratio was 9.

In the case of `N#Cc1ccc(Nc2cc(NS(=O)(=O)c3ccc(F)cc3)ccn2)cc1`, the EC50 in series [1] was above 6.12 µM. Further, the inhibition entry in series [2] and in series [3] was “inactive” each time. For the same compound, in series [4], the CC50 at 120 h was 6.12 µM. The selectivity ratio in series [5] was below 1.

As to `N#Cc1ccc(Nc2nccc(NS(=O)(=O)c3ccc4ccccc4c3)n2)cc1`, the concentration for a half-maximal effect (EC50) in series [1] was 48.9 µM. The inhibition result in series [2] and in series [3] was “inactive” each time. The CC50 at 120 h in series [4] came to 77.1 µM. Further, in series [5], the selectivity ratio was 2.

As for `Cc1cc(C)cc(S(=O)(=O)Nc2ccnc(Nc3ccc(C#N)cc3)n2)c1`, the concentration for a half-maximal effect (EC50) in series [1] worked out at 6.21 µM. Moreover, the inhibition result in series [2] and in series [3] was “inactive” in each case. Further, the CC50 at 120 h in series [4] turned out to be 173 µM. Moreover, the selectivity ratio in series [5] was 28.

As for `O=c1[nH]cnc2c1ncn2[C@H]1CC[C@@H](CO)O1` [DIDANOSINE], the 50% effective concentration (EC50) in series [1] was 76 µM. The CC50 at 120 h in series [4] is above 212 µM. In series [5], the selectivity ratio was above 3.

As for `CC(C)c1cc(C(C)C)c(S(=O)(=O)Nc2ccnc(Nc3ccc(C#N)cc3)n2)c(C(C)C)c1`, the EC50 in series [1] was above 17.4 µM. The inhibition result in series [2] and in series [3] was “inactive” throughout. Further, the 50% cytotoxic concentration (CC50) at 120 h in series [4] stood at 17.4 µM. Moreover, in series [5], the selectivity ratio was below 1.

Consider `Cc1cc(C)c(S(=O)(=O)Nc2ccnc(Nc3ccc(C#N)cc3)n2)c(C)c1`, for which the EC50 in series [1] was above 4.4 µM. The inhibition entry in series [2] and in series [3] was “inactive” each time. In series [4], the CC50 at 120 h is 4.4 µM. Further, the selectivity ratio in series [5] is below 1.

For `Cc1cc(C)cc(S(=O)(=O)Nc2ccnc(Nc3ccc(C#N)cc3)c2)c1`, the concentration for a half-maximal effect (EC50) in series [1] was above 5.06 µM. Moreover, the inhibition result in series [2] and in series [3] was “inactive” each time. For the same compound, in series [4], the CC50 at 120 h worked out at 5.06 µM. Further, the selectivity ratio in series [5] was below 1.

Consider `Cc1ccc(S(=O)(=O)Nc2ccnc(Nc3ccc(C#N)cc3)n2)cc1`, for which the EC50 in series [1] turned out to be 1.61 µM. The inhibition entry in series [2] and in series [3] was “inactive” each time. In addition, the half-maximal cytotoxic concentration (CC50) at 120 h in series [4] came out at 130 µM. The inhibition in series [6] turned out to be 41.5%. The selectivity ratio in series [5] was 80.

As to `N#Cc1ccc(Nc2nccc(NS(=O)(=O)c3ccc(C#N)cc3)n2)cc1`, the EC50 in series [1] was found to be 39.4 µM. Also, the inhibition result in series [2] and in series [3] was “inactive” each time. For the same compound, the CC50 at 120 h in series [4] came to 159 µM. In addition, the selectivity ratio in series [5] stood at 4.

On to `Cc1cc(C)cc(S(=O)(=O)c2c(C(N)=O)[nH]c3ccc(Cl)cc23)c1`, for which the EC50 in series [1] worked out at 0.0026 µM. In addition, the CC50 at 120 h in series [4] was 11 µM. Further, in series [5], the selectivity ratio came to 4260.

`CC(C)c1cc(C(C)C)c(S(=O)(=O)Nc2ccnc(Nc3ccc(C#N)cc3)c2)c(C(C)C)c1`: the 50% effective concentration (EC50) in series [1] is above 11.5 µM. For the same compound, the inhibition entry in series [2] and in series [3] was “inactive” throughout. The CC50 at 120 h in series [4] was determined as 11.5 µM. In addition, the selectivity ratio in series [5] is below 1.

Turning to `CC(C)(C)c1ccc(S(=O)(=O)Nc2ccnc(Nc3ccc(C#N)cc3)n2)cc1`, the EC50 in series [1] came out at 7.52 µM. Moreover, the inhibition entry in series [2] and in series [3] was “inactive” each time. Also, in series [4], the cytotoxic concentration (CC50) at 120 h was 30.3 µM. Also, in series [5], the selectivity ratio came out at 4.

Take `N#Cc1ccc(Nc2cc(NS(=O)(=O)c3cc(C(F)(F)F)cc(C(F)(F)F)c3)ccn2)cc1`: the EC50 in series [1] is above 62.2 µM. Besides, the inhibition result in series [2] and in series [3] was “inactive” in each case. The CC50 at 120 h in series [4] was determined as 62.2 µM. In addition, the selectivity ratio in series [5] is below 1.

As to `Cc1cc(C#N)cc(C)c1Oc1nc(Nc2ccc(C#N)cc2)nc(N)c1Br` [ETRAVIRINE], the EC50 in series [1] turned out to be 0.004 µM. In addition, in series [4], the CC50 at 120 h was determined as 2.15 µM. Also, the inhibition in series [6] was found to be 93.3%. Further, the selectivity ratio in series [5] is 541.

In the case of `Cc1cc(C)c(S(=O)(=O)Nc2ccnc(Nc3ccc(C#N)cc3)c2)c(C)c1`, the concentration giving a half-maximal response (EC50) in series [1] was 6.08 µM. For the same compound, the inhibition result in series [2] and in series [3] was “inactive” throughout. The half-maximal cytotoxic concentration (CC50) at 120 h in series [4] came out at 22.2 µM. The selectivity ratio in series [5] came to 4.

In the case of `N#Cc1ccc(Nc2nccc(NS(=O)(=O)c3ccc(F)cc3)n2)cc1`, the EC50 in series [1] is at least 9.05 µM. Moreover, the inhibition entry in series [2] and in series [3] was “inactive” each time. In series [4], the 50% cytotoxic concentration (CC50) at 120 h came to 36.6 µM. The selectivity ratio in series [5] is at most 4.

(Values after ChEMBL document CHEMBL4052715, “Discovery of novel DAPY-IAS hybrid derivatives as potential HIV-1 inhibitors using molecular hybridization based on crystallographic overlays” (Bioorg Med Chem, 2017).)
